Reference: PubChem BioAssay (NCI)
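Grown in 96-well plates, cells were treated for 48 hours with each compound at five concentrations. Insufficient inhibition: endpoint recorded as highest concentration tested. TGI: concentration producing complete growth inhibition.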

Assays:
Assay in all cases: NCI-60 cell line screen, 48 h
[1] = test system: UACC-62 melanoma
[2] = test system: NCI-H23 lung
[3] = test system: SK-MEL-5 melanoma
[4] = test system: OVCAR-4 ovarian
[5] = test system: A498 renal
[6] = test system: MCF7 breast
[7] = test system: SK-OV-3 ovarian
[8] = test system: HOP-92 NSCLC
[9] = test system: CCRF-CEM leukemia
[10] = test system: MALME-3M melanoma
[11] = test system: NCI-H522 lung
[12] = test system: UACC-257 melanoma
[13] = test system: HCC-2998 colon
[14] = test system: HL-60(TB) leukemia
[15] = test system: K-562 leukemia
[16] = test system: SNB-75 CNS
[17] = test system: M14 melanoma
[18] = test system: NCI-H226 lung
[19] = test system: MDA-N
[20] = test system: SF-539 CNS
[21] = test system: UO-31 renal
[22] = test system: SF-295 CNS
[23] = test system: SNB-19 CNS
[24] = test system: OVCAR-8 ovarian
[25] = test system: EKVX NSCLC
[26] = test system: IGROV1 ovarian
[27] = test system: MDA-MB-435
[28] = test system: RPMI-8226 leukemia
[29] = test system: U251 CNS
[30] = test system: 786-0 renal
[31] = test system: NCI/ADR-RES ovarian
[32] = test system: MDA-MB-231 breast
[33] = test system: HCT-116 colon
[34] = test system: CAKI-1 renal
[35] = test system: TK-10 renal
[36] = test system: HCT-15 colon
[37] = test system: SK-MEL-2 melanoma
[38] = test system: LOX IMVI melanoma
[39] = test system: SR leukemia
[40] = test system: SW-620 colon
[41] = test system: KM12 colon
[42] = test system: A549 NSCLC
[43] = test system: OVCAR-5 ovarian
[44] = test system: PC-3 prostate
[45] = test system: SK-MEL-28 melanoma
[46] = test system: MOLT-4 leukemia
[47] = test system: HT29 colon
[48] = test system: ACHN renal
[49] = test system: OVCAR-3 ovarian
[50] = test system: BT-549 breast
[51] = test system: COLO 205 colon
[52] = test system: SN12C renal
[53] = test system: T-47D breast
[54] = test system: HOP-62 NSCLC
[55] = test system: SF-268 CNS
[56] = test system: HS 578T breast
[57] = test system: NCI-H460 lung
[58] = test system: RXF 393 renal

Measured: TGI

COc1ccccc1NCc1cccc2c(=O)c3ccc(Cl)cc3oc12
64 µM: [14]
not listed: [55] | [56] | [57] | [58]
> 100 µM: all other assays above

Cc1ccc(NC(=O)/C(=N/N(C)C)C(C2OC(=O)c3ccccc32)[N+](=O)[O-])cc1 (stereo not given)
not listed: [10] | [11] | [23] | [25] | [26] | [39] | [51]
> 100 µM: all other assays above
